In patent US9862717B2 (Merck Patent GmbH, priority 2014, dated 2018):
pIC50: −log10 of the molar value.

biological target: T1, CDK8/CycC (Homo sapiens, UniProt P49336); assay: FRET based Lanthascreen binding competition assay for CDK8 inhibitory activity; conditions: CDK8 co-expressed with CycC; class symbols; read-out: IC50
T1 construct: purchased Invitrogen PV4402
Outline: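 Competition binding of a dye-labeled ATP-competitive Alexa647 probe to CDK8 co-expressed with CycC, Eu-labeled via biotinylated anti-His antibody/streptavidin.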

T1 sequence (P49336 whole entry): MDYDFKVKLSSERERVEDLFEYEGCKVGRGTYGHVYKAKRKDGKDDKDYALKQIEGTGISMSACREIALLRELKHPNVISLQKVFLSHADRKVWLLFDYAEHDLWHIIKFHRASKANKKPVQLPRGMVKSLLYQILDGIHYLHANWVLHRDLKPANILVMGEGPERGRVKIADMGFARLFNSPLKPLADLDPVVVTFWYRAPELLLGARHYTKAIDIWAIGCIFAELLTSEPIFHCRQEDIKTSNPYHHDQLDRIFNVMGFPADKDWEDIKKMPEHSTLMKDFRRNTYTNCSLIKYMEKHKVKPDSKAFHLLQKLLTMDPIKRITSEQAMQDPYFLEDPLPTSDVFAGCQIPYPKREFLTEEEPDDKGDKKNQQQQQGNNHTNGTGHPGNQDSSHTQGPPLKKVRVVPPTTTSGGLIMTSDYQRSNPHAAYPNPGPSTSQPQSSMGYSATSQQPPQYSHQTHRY
T1 sequence (P24863 whole entry partner): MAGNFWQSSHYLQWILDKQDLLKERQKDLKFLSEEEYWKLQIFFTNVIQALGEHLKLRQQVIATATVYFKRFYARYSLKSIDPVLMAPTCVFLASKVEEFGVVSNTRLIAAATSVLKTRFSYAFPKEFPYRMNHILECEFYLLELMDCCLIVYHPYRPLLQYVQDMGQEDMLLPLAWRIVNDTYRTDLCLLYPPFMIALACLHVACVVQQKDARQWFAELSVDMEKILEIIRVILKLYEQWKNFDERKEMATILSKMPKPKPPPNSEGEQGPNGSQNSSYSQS

pIC50	SMILES
> 8.00	Cc1n[nH]c2ccc(C(=O)N3CC[C@H]3c3ccc(F)cc3)cc12 [compound 204, [(S)-2-(4-Fluoro-phenyl)-azetidin-1-yl]-(3-methyl-1H-indazol-5-yl)-methanone]
> 8.00	Cc1n[nH]c2cc(F)c(C(=O)N3CCC[C@H]3c3ccc(Cl)cc3)cc12 [compound 206, [(S)-2-(4-Chloro-phenyl)-pyrrolidin-1-yl]-(6-fluoro-3-methyl-1H-indazol-5-yl)-methanone]
7.00 to 8.00	Cc1n[nH]c2ccc(C(=O)N3CC[C@@H]3c3ccc(F)cc3)cc12 [compound 207, [(R)-2-(4-Fluoro-phenyl)-azetidin-1-yl]-(3-methyl-1H-indazol-5-yl)-methanone]
7.00 to 8.00	Nc1n[nH]c2ccc(C(=O)N3CCC[C@H]3c3ccc(C(F)(F)F)cc3)cc12 [compound 208, (3-Amino-1H-indazol-5-yl)-[(S)-2-(4-trifluoromethyl-phenyl)-pyrrolidin-1-yl]-methanone]
6.00 to 7.00	Nc1n[nH]c2ccc(C(=O)N3CCC[C@@H]3c3ccc(C(F)(F)F)cc3)cc12 [compound 209, (3-Amino-1H-indazol-5-yl)-[(R)-2-(4-trifluoromethyl-phenyl)-pyrrolidin-1-yl]-methanone]
> 8.00	CSc1n[nH]c2ccc(C(=O)N3CCC[C@H]3c3ccc(Cl)cc3)cc12 [compound 210, [(S)-2-(4-Chloro-phenyl)-pyrrolidin-1-yl]-(3-methylsulfanyl-1H-indazol-5-yl)-methanone]
6.00 to 7.00	COC(=O)C1CCN(C(=O)c2cnc3[nH]nc(C)c3c2)C(c2ccccc2)C1 (centres unmarked) [compound 211, 1-(3-Methyl-1H-pyrazolo[3,4-b]pyridine-5-carbonyl)-2-phenyl-piperidine-4-carboxylic acid methyl ester]
5.00 to 6.00	Cc1n[nH]c2ncc(C(=O)N3CCO[C@@](C)(c4ccc(Cl)cc4)C3)cc12 [compound 214, [(S)-2-(4-Chloro-phenyl)-2-methyl-morpholin-4-yl]-(3-methyl-1H-pyrazolo[3,4-b]pyridin-5-yl)-methanone]
5.00 to 6.00	Cc1n[nH]c2ncc(C(=O)N3CCNC(=O)[C@H]3c3ccc(F)cc3)cc12 [compound 215, (R)-3-(4-Fluoro-phenyl)-4-(3-methyl-1H-pyrazolo[3,4-b]pyridine-5-carbonyl)-piperazin-2-one]
> 8.00	O=C(c1ccc2[nH]nc(F)c2c1)N1CCC[C@H]1c1ccc(Cl)cc1 [compound 216, [(S)-2-(4-Chloro-phenyl)-pyrrolidin-1-yl]-(3-fluoro-1H-indazol-5-yl)-methanone]
7.00 to 8.00	O=C(c1ccc2[nH]nc(Cl)c2c1)N1CCC[C@H]1c1ccc(Cl)cc1 [compound 217, (3-Chloro-1H-indazol-5-yl)-[(S)-2-(4-chloro-phenyl)-pyrrolidin-1-yl]-methanone]
7.00 to 8.00	O=C(c1ccc2[nH]nc(Cl)c2c1)N1CCC(c2ccc(Cl)cc2)C1 (centres unmarked) [compound 218, (3-Chloro-1H-indazol-5-yl)-[3-(4-chloro-phenyl)-pyrrolidin-1-yl]-methanone]
7.00 to 8.00	O=C(c1ccc2[nH]nc(Cl)c2c1)N1CCCC1c1ccc(C(F)(F)F)cc1 (centres unmarked) [compound 219, (3-Chloro-1H-indazol-5-yl)-[2-(4-trifluoromethyl-phenyl)-pyrrolidin-1-yl]-methanone]
7.00 to 8.00	CS(=O)(=O)c1n[nH]c2ccc(C(=O)N3CCC[C@H]3c3ccc(Cl)cc3)cc12 [compound 220, [(S)-2-(4-Chloro-phenyl)-pyrrolidin-1-yl]-(3-methanesulfonyl-1H-indazol-5-yl)-methanone]
> 8.00	COc1ccc([C@@H]2CCCN2C(=O)c2cnc3[nH]nc(C)c3c2)cc1 [compound 221, [(S)-2-(4-Methoxy-phenyl)-pyrrolidin-1-yl]-(3-methyl-1H-pyrazolo[3,4-b]pyridin-5-yl)-methanone]
6.00 to 7.00	COc1cccc([C@@H]2CCCN2C(=O)c2cnc3[nH]nc(C)c3c2)c1 [compound 222, [(S)-2-(3-Methoxy-phenyl)-pyrrolidin-1-yl]-(3-methyl-1H-pyrazolo[3,4-b]pyridin-5-yl)-methanone]
5.00 to 6.00	COc1ccc([C@H]2CCCN2C(=O)c2cnc3[nH]nc(C)c3c2)cc1 [compound 223, [(R)-2-(4-Methoxy-phenyl)-pyrrolidin-1-yl]-(3-methyl-1H-pyrazolo[3,4-b]pyridin-5-yl)-methanone]
5.00 to 6.00	COc1cccc([C@H]2CCCN2C(=O)c2cnc3[nH]nc(C)c3c2)c1 [compound 224, [(R)-2-(3-Methoxy-phenyl)-pyrrolidin-1-yl]-(3-methyl-1H-pyrazolo[3,4-b]pyridin-5-yl)-methanone]

pIC50	SMILES
> 8.00	Cc1n[nH]c2ncc(C(=O)N3CCC[C@H]3c3ccc(Cl)cc3F)cc12 [compound 225, [(S)-2-(4-Chloro-2-fluoro-phenyl)-pyrrolidin-1 yl]-(3-methyl-1H-pyrazolo[3,4-b]pyridin-5-yl)-methanone]
5.00 to 6.00	Cc1n[nH]c2ncc(C(=O)N3CCC[C@@H]3c3ccc(Cl)cc3F)cc12 [compound 226, [(R)-2-(4-Chloro-2-fluoro-phenyl)-pyrrolidin-1-yl]-(3-methyl-1H-pyrazolo[3,4-b]pyridin-5-yl)-methanone]
> 8.00	Cc1n[nH]c2ncc(C(=O)N3CCC[C@H]3c3ccc(Cl)c(F)c3)cc12 [compound 227, [(S)-2-(4-Chloro-3-fluoro-phenyl)-pyrrolidin-1-yl]-(3-methyl-1H-pyrazolo[3,4-b]pyridin-5-yl)-methanone]
5.00 to 6.00	Cc1n[nH]c2ncc(C(=O)N3CCC[C@@H]3c3ccc(Cl)c(F)c3)cc12 [compound 228, [(R)-2-(4-Chloro-3-fluoro-phenyl)-pyrrolidin-1-yl]-(3-methyl-1H-pyrazolo[3,4-b]pyridin-5-yl)-methanone]
5.00 to 6.00	Cc1n[nH]c2ncc(C(=O)N3CCC[C@@H]3c3ccc4cn[nH]c4c3)cc12 [compound 229, [(R)-2-(1H-Indazol-6-yl)-pyrrolidin-1-yl]-(3-methyl-1H-pyrazolo[3,4-b]pyridin-5-yl)-methanone]
7.00 to 8.00	Cc1n[nH]c2ncc(C(=O)N3CCC[C@H]3c3ccc4cn[nH]c4c3)cc12 [compound 230, [(S)-2-(1H-Indazol-6-yl)-pyrrolidin-1-yl]-(3-methyl-1H-pyrazolo[3,4-b]pyridin-5-yl)-methanone]
5.00 to 6.00	Cc1n[nH]c2ncc(C(=O)N3C[C@@H](C)C[C@@H]3c3ccc(C(F)(F)F)cc3)cc12 [compound 231, (3-Methyl-1H-pyrazolo[3,4-b]pyridin-5-yl)-[(2R,4S)-4-methyl-2-(4-trifluoromethyl-phenyl)-pyrrolidin-1-yl]-methanone]
7.00 to 8.00	Cc1n[nH]c2ncc(C(=O)N3C[C@H](C)C[C@H]3c3ccc(C(F)(F)F)cc3)cc12 [compound 232, (3-Methyl-1H-pyrazolo[3,4-b]pyridin-5-yl)-[(2S,4R)-4-methyl-2-(4-trifluoromethyl-phenyl)-pyrrolidin-1-yl]-methanone]
6.00 to 7.00	Cc1n[nH]c2ncc(C(=O)N3CCC(C(N)=O)CC3c3ccccc3)cc12 (centres unmarked) [compound 235, 1-(3-Methyl-1H-pyrazolo[3,4-b]pyridine-5-carbonyl)-2-phenyl-piperidine-4-carboxylic acid amide]
6.00 to 7.00	Cc1n[nH]c2ncc(C(=O)N3CCC(O)(c4ccc(Cl)cc4)C3)cc12 (centres unmarked) [compound 237, [3-(4-Chloro-phenyl)-3-hydroxy-pyrrolidin-1-yl]-(3-methyl-1H-pyrazolo[3,4-b]pyridin-5-yl)-methanone]
6.00 to 7.00	Nc1n[nH]c2ccc(C(=O)N3CCC(O)(c4ccc(Cl)cc4)C3)cc12 (centres unmarked) [compound 238, (3-Amino-1H-indazol-5-yl)-[3-(4-chloro-phenyl)-3-hydroxy-pyrrolidin-1-yl]-methanone]
6.00 to 7.00	O=C(c1cnc2[nH]ncc2c1)N1CCC[C@H]1c1ccc(Cl)cc1 [compound 239, [(S)-2-(4-Chloro-phenyl)-pyrrolidin-1-yl]-(1H-pyrazolo[3,4-b]pyridin-5-yl)-methanone]
5.00 to 6.00	Cc1n[nH]c2ncc(C(=O)N3CC[C@@H]3c3ccc(Cl)cc3)cc12 [compound 240, [(R)-2-(4-Chloro-phenyl)-azetidin-1-yl]-(3-methyl-1H-pyrazolo[3,4-b]pyridin-5-yl)-methanone]
7.00 to 8.00	Cc1n[nH]c2ncc(C(=O)N3CC[C@H]3c3ccc(Cl)cc3)cc12 [compound 241, [(S)-2-(4-Chloro-phenyl)-azetidin-1-yl]-(3-methyl-1H-pyrazolo[3,4-b]pyridin-5-yl)-methanone]
> 8.00	Cc1n[nH]c2ccc(C(=O)N3CCC[C@H]3c3ccc(F)cc3)nc12 [compound 242, (S)-(2-(4-fluorophenyl)pyrrolidin-1-yl)(3-methyl-1H-pyrazolo[4,3-b]pyridin-5-yl)methanone]
7.00 to 8.00	COc1n[nH]c2ncc(C(=O)N3CCC[C@H]3c3ccc(Cl)cc3)cc12 [compound 243, (S)-(2-(4-chlorophenyl)pyrrolidin-1-yl)(3-methoxy-1H-pyrazolo[3,4-b]pyridin-5-yl)methanone]
7.00 to 8.00	Cc1n[nH]c2ncc(C(=O)N3CCC[C@H]3c3ccc4[nH]ncc4c3)cc12 [compound 245, [(S)-2-(1H-Indazol-5-yl)-pyrrolidin-1-yl]-(3-methyl-1H-pyrazolo[3,4-b]pyridin-5-yl)-methanone]

same assay, conditions: IC50 [μM], CDK8 co-expressed with CycC; class symbols

IC50	SMILES
0.1 to 1 µM	Cc1n[nH]c2ccc(C(=O)N3CC[C@@H]3c3ccc(Cl)cc3)cc12 [compound 205, [(R)-2-(4-Chloro-phenyl)-azetidin-1-yl]-(3-methyl-1H-indazol-5-yl)-methanone]
< 0.01 µM	CNc1n[nH]c2ccc(C(=O)N3CCC[C@H]3c3ccc(Cl)cc3)cc12 [compound 236, [(S)-2-(4-Chloro-phenyl)-pyrrolidin-1-yl]-(3-methylamino-1H-indazol-5-yl)-methanone]
0.01 to 0.1 µM	Cc1n[nH]c2ccc(C(=O)N3CCN(C)CC3c3ccc(Cl)cc3)cc12 (centres unmarked) [compound 244, (2-(4-chlorophenyl)-4-methylpiperazin-1-yl)(3-methyl-1H-indazol-5-yl)methanone]
